Test results as given in patent US10010520B2, “Combined application of isothiocyanate compound and anti-cancer medicine” (JC (WUXI) COMPANY, INC., priority 2013, dated 2018).
“And” between values parts separate entries of the source, which are not always exact repeats. Equal values may be shown once. Read-outs that look alike come from different tables or passages of the source.

Key:
LNCaP cells = test: CellTiter-Glo cell viability, drugs alone or in combination, LNCaP cells; assay type: cell-based, human; conditions: LNCaP cells, 72 hrs
Experimental: (§1) Cell culture: Androgen-dependent human prostate cancer cells LNCaP, from Shanghai Medicilon Ltd., were placed in a 37° C., 5% CO2 cell incubator, and were cultured in RPMI1640 culture medium with 10% FBS. Androgen-independent human prostate cancer cells DU145, PC-3, from Shanghai Medicilon Ltd., were placed in a 37° C., 5% CO2 cell incubator, and were cultured in F12 culture medium with 10% FBS.
(§2) isothiocyanates or derivatives thereof and DNA-effecting or influencing anticancer drugs, kinase-inhibiting anticancer drugs or hormonal anticancer drugs for endocrine therapy were administered separately or in combination to cancer cells. Cells were seeded into 384-well plates, and cultured for 24 hours in a CO2 incubator. Drugs were dissolved in DMSO and diluted to 9 concentration-gradients in 96 well plates, and then added to corresponding cells in 384-well plates, in which the concentrations of DMSO in 384 well plates were less than 1%. Triplicate wells were set for each concentration. After administration, the cells were cultured in the CO2 incubator for another 72 hrs, and afterwards, cell viability was tested by using CellTiter-Glo® reagent and luminescence detector. And IC50 values of each administration group were calculated.
(§3) CI value was calculated by the following formula: CI=(Am)50/(As)50+(Bm)50/(Bs)50,
(§4) Triplicate wells were set for each co-administration cell well.
(§5) After administration, cells were cultured in the CO2 incubator for another 72 hrs, and afterwards, cell viability was tested by using CellTiter-Glo® reagent and luminescence detector. Curves were plotted according to concentrations or logarithm concentrations of drug A vs cell inhibition rate in the corresponding cell well, and IC50, i.e. (Am)50 was calculated.
(§6) 9 concentration gradients of drug A were set (A1, A2, A3, A4, A5, A6, A7, A8, A9), and administrated alone to the corresponding cells in the 384 well plate, and triplicate wells were set for each administration concentration. After administration, the cells were cultured in the CO2 incubator for another 72 hrs, and afterwards, cell viability was tested by using CellTiter-Glo® reagent and luminescence detector. Curves were plotted according to concentration or logarithm concentration of drug A vs the cell inhibition rate in the corresponding cell well, and IC50, i.e. (As)50 was calculated.
(§7) After administration, the cells were cultured in the CO2 incubator for another 72 hrs, and afterwards, cell viability was tested by using CellTiter-Glo® reagent and luminescence detector.

PC-3 cells = test: CellTiter-Glo cell viability, drugs alone or in combination, PC-3 cells; assay type: cell-based; conditions: Homo sapiens, 72 hrs
Experimental: as §1
isothiocyanates or derivatives thereof and DNA-effecting or influencing anticancer drugs, kinase-inhibiting anticancer drugs or hormonal anticancer drugs for endocrine therapy were administered separately or in combination to cancer cells. […] After administration, the cells were cultured in the CO2 incubator for another 72 hrs, and afterwards, cell viability was tested by using CellTiter-Glo® reagent and luminescence detector. And IC50 values of each administration group were calculated.
CI value was calculated by the following formula: CI=(Am)50/(As)50+(Bm)50/(Bs)50, […]
(§8) After administration, cells were cultured in the CO2 incubator for another 72 hrs, and afterwards, cell viability was tested by using CellTiter-Glo® reagent and luminescence detector. Curves were plotted according to concentrations or logarithm concentrations of drug A vs cell inhibition rate in the corresponding cell well, and IC50, i.e. (Am)50 was calculated. […]

DU145 cells = test: CellTiter-Glo cell viability, drugs alone or in combination, DU145 cells; assay type: cell-based, human
Experimental: as §1, §2, §3, §4, §5, §6, §7

[1] = test system: human leukemia HL-60 cells; test: CellTiter-Glo cell viability, drugs alone or in combination, HL-60 cells; assay type: cell-based; conditions: read-out: (As)50, IC50 of drug A when used alone
Experimental: as §2, §3, §4, §5, §6, §7

[2] = test system: Human breast cancer MDA-MB-231 cells; test: CellTiter-Glo cell viability, drugs alone or in combination, MDA-MB-231 cells
[3] = test system: human kidney cancer cells 786-O; test: CellTiter-Glo cell viability, drugs alone or in combination, 786-O cells; conditions: 786-0, 72 h
HeLa cells = test: CellTiter-Glo cell viability, drugs alone or in combination, HeLa cells; assay type: cell-based, human
Experimental: as §2, §3, §4, §5, §6, §7

Saos-2 cells = test: CellTiter-Glo cell viability, drugs alone or in combination, Saos-2 cells; assay type: cell-based, human
Experimental: as §2, §3, §4, §5, §6, §7

[4] = test system: pancreatic cancer cells PANC-1; test: CellTiter-Glo cell viability, drugs alone or in combination, PANC-1 cells; assay type: cell-based, human; conditions: PANC-1 cells, 72 hrs
Experimental: as §2, §3, §4, §5, §6, §7

HT29 cells = test: CellTiter-Glo cell viability, drugs alone or in combination, HT29 cells; conditions: Homo sapiens, HT-29, 72 h
[5] = test system: human gastric cancer AGS cells; test: CellTiter-Glo cell viability, drugs alone or in combination, AGS cells
SK-MEL-28 cells = test: CellTiter-Glo cell viability, drugs alone or in combination, SK-MEL-28 cells; assay type: cell-based; conditions: Homo sapiens, 72 hrs
Experimental: as §2, §3, §4, §8

A549 cells = test: CellTiter-Glo cell viability, drugs alone or in combination, A549 cells; assay type: cell-based, human
Experimental: as §2, §3, §4, §5, §6, §7

OVCAR-3 cells = test: CellTiter-Glo cell viability, drugs alone or in combination, OVCAR-3 cells
U251 cells = test: CellTiter-Glo cell viability, drugs alone or in combination, U251 cells; conditions: Homo sapiens, U-251, 72 h
Jurkat E6-1 cells = test: CellTiter-Glo cell viability, drugs alone or in combination, Jurkat E6-1 cells; assay type: cell-based, human; conditions: Jurkat E6-1 cells, 72 hrs, read-out: (As)50, IC50 of drug A when used alone
Experimental: as §2, §3, §4, §5, §6, §7

[6] = Homo sapiens, LNCaP, 72 h, read-out: (Bs)50, IC50 of drug B when used alone
[7] = read-out: (Bs)50, IC50 of drug B when used alone
[8] = Homo sapiens, DU-145, 72 h, read-out: (Bs)50, IC50 of drug B when used alone
[9] = Homo sapiens, LNCaP, 72 h, read-out: (As)50, IC50 of drug A when used alone
[10] = Homo sapiens, MDA-MB-231, 72 h, read-out: (As)50, IC50 of drug A when used alone, MDA-MB-231 cells, 72 hrs
[11] = read-out: (As)50, IC50 of drug A when used alone, 786-O cells, 72 hrs
[12] = Homo sapiens, HeLa, 72 h, read-out: (As)50, IC50 of drug A when used alone
[13] = Homo sapiens, SAOS-2, 72 h, Saos-2 cells, 72 hrs, read-out: (As)50, IC50 of drug A when used alone
[14] = Homo sapiens, PANC-1, 72 h, read-out: (As)50, IC50 of drug A when used alone
[15] = read-out: (As)50, IC50 of drug A when used alone
[16] = 72 hrs, read-out: (As)50, IC50 of drug A when used alone
[17] = Homo sapiens, AGS, 72 h, read-out: (Bs)50, IC50 of drug B when used alone, AGS cells
[18] = Homo sapiens, OVCAR-3, 72 h, read-out: (Bs)50, IC50 of drug B when used alone, OVCAR-3 cells, 72 hrs
[19] = 72 hrs, read-out: (Bs)50, IC50 of drug B when used alone
[20] = Homo sapiens, A549, 72 h, read-out: (Bs)50, IC50 of drug B when used alone

C[C@]12CC[C@H](O)CC1=CC[C@@H]1[C@@H]2CC[C@]2(C)C(c3cccnc3)=CC[C@@H]12 [Abiraterone, abiraterone, reference compound]
IC50 (LNCaP cells; [6]): 21.2 µM
IC50 (PC-3 cells; [7]): 101 µM
IC50 (DU145 cells; [8]): 37.4 µM

S=C=NCc1ccccc1 [Benzyl isothiocyanate, benzyl isothiocyanate]
IC50 (LNCaP cells; [9]): 18.5 µM
IC50 ([1]; Homo sapiens, HL-60, 72 h): 11.5 µM
IC50 [2, 10]: 11.4 µM
IC50 [3, 11]: 13.2 µM
IC50 (HeLa cells; [12]): 14.7 µM
IC50 (Saos-2 cells; [13]): 14.5 µM
IC50 [4, 14]: 23.4 µM

CC(O)(CS(=O)(=O)c1ccc(F)cc1)C(=O)Nc1ccc(C#N)c(C(F)(F)F)c1 (stereo not shown) [Bicalutamide, bicalutamide, reference compound]
IC50 (LNCaP cells; [6]): 72.5 µM
IC50 (LNCaP cells; [7]): 70 µM
IC50 (DU145 cells; [8]): 130 µM

CO[C@H]1C(=O)[C@]2(C)[C@@H](OC)C[C@H]3OC[C@@]3(OC(C)=O)[C@H]2[C@H](OC(=O)c2ccccc2)[C@]2(O)C[C@H](OC(=O)[C@H](O)[C@@H](NC(=O)OC(C)(C)C)c3ccccc3)C(C)=C1C2(C)C [Cabazitaxel]
IC50 (DU145 cells; [8]): 0.0265 µM

Nc1nc2c(c(=O)[nH]1)N(C=O)C(CNc1ccc(C(=O)N[C@@H](CCC(=O)O)C(=O)O)cc1)CN2 (stereo partly shown) [Leucovorin, reference compound]
IC50 (HT29 cells; [7]): > 100 µM

S=C=NCCc1ccccc1 [Phenethyl isothiocyanate]
IC50 ([5]; Homo sapiens, AGS, 72 h, read-out: (As)50, IC50 of drug A when used alone, AGS cells): 14.7 µM
IC50 ([5]; read-out: (As)50, IC50 of drug A when used alone, AGS cells, 72 hrs): 11.8 µM
IC50 (LNCaP cells; [9]): 20.4 µM
IC50 (SK-MEL-28 cells; [15]): 32.7 µM
IC50 ([1]; 72 hrs): 6.66 µM
IC50 ([1]; Homo sapiens, HL-60, 72 h): 6.27 µM
IC50 [2, 10]: 25.1 µM
IC50 (PC-3 cells; [15]): 52.6 µM
IC50 (HT29 cells; [15]): 29.2 µM
IC50 (A549 cells; [16]): 22.3 µM
IC50 (A549 cells; Homo sapiens, A549, 72 h, read-out: (As)50, IC50 of drug A when used alone): 22 µM
IC50 (OVCAR-3 cells; read-out: (As)50, IC50 of drug A when used alone, OVCAR-3 cells, 72 hrs): 31.8 µM and 9.87 µM
IC50 [3, 11]: 16 µM
IC50 (HeLa cells; [12]): 16.1 µM
IC50 (Saos-2 cells; [13]): 20.5 µM
IC50 [4, 14]: 19.6 µM
IC50 (U251 cells; read-out: (As)50, IC50 of drug A when used alone, U251 cells, 72 hrs): 20.9 µM
IC50 (Jurkat E6-1 cells; Homo sapiens, Jurkat E6.1, 72 h): 12.1 µM
IC50 (Jurkat E6-1 cells): 11.6 µM and 12.1 µM and 11.5 µM
IC50 (DU145 cells; [16]): 19.4 µM

CCCS(=O)(=O)Nc1ccc(F)c(C(=O)c2c[nH]c3ncc(-c4ccc(Cl)cc4)cc23)c1F [Vemurafenib, reference compound]
IC50 (SK-MEL-28 cells; [7]): 1.2 µM

COc1cccc2c1C(=O)c1c(O)c3c(c(O)c1C2=O)C[C@@](O)(C(=O)CO)C[C@@H]3O[C@H]1C[C@H](N)[C@H](O)[C@H](C)O1 [adriamycin, reference compound]
IC50 [5, 17]: 0.0534 µM
IC50 (OVCAR-3 cells; [18]): 1.74 µM
IC50 (Saos-2 cells; Homo sapiens, SAOS-2, 72 h, Saos-2 cells, 72 hrs, read-out: (Bs)50, IC50 of drug B when used alone): 0.899 µM
IC50 (Saos-2 cells; Saos-2 cells, 72 hrs, read-out: (Bs)50, IC50 of drug B when used alone): 0.574 µM

N.N.[Cl][Pt][Cl] [cisplatin, Cisplatin, reference compound]
IC50 (OVCAR-3 cells; read-out: (Bs)50, IC50 of drug B when used alone, OVCAR-3 cells, 72 hrs): 20.6 µM
IC50 (HeLa cells; [19]): 32.8 µM

S=C=NC1CCCCC1 [cyclohexyl isothiocyanate]
IC50 (LNCaP cells; [9]): 54 µM
IC50 ([1]; Homo sapiens, HL-60, 72 h): 52.7 µM
IC50 ([2]; Homo sapiens, MDA-MB-231, 72 h, read-out: (As)50, IC50 of drug A when used alone): 37.5 µM
IC50 (OVCAR-3 cells; Homo sapiens, OVCAR-3, 72 h, read-out: (As)50, IC50 of drug A when used alone): 36.5 µM
IC50 [3, 15]: 107 µM
IC50 (Saos-2 cells; Homo sapiens, SAOS-2, 72 h, read-out: (As)50, IC50 of drug A when used alone): 66 µM
IC50 ([4]; Homo sapiens, read-out: (As)50, IC50 of drug A when used alone): 193 µM
IC50 (U251 cells; [15]): 71.1 µM
IC50 (Jurkat E6-1 cells; Homo sapiens): 42.1 µM

CC(=O)O[C@@]12CO[C@@H]1C[C@H](O)[C@@]1(C)C(=O)[C@H](O)C3=C(C)[C@@H](OC(=O)[C@H](O)[C@@H](NC(=O)OC(C)(C)C)c4ccccc4)C[C@@](O)([C@@H](OC(=O)c4ccccc4)[C@H]21)C3(C)C [docetaxel, reference compound]
IC50 [5, 17]: 0.00974 µM
IC50 ([2]; read-out: (Bs)50, IC50 of drug B when used alone, MDA-MB-231 cells, 72 hrs): 0.391 µM

Nc1ccn([C@@H]2O[C@H](CO)[C@@H](O)C2(F)F)c(=O)n1 [gemcitabine, Gemcitabine, reference compound]
IC50 (A549 cells; [20]): 9.54 µM
IC50 (OVCAR-3 cells; [18]): 89.7 µM
IC50 [4, 7]: 32.4 µM

CN(Cc1cnc2nc(N)nc(N)c2n1)c1ccc(C(=O)N[C@@H](CCC(=O)O)C(=O)O)cc1 [methotrexate, reference compound]
IC50 (A549 cells; [20]): 0.08 µM

Bleomycin [reference compound]
IC50 (HeLa cells; [19]): 24.5 µM
